Measured values from PMC7215599, “Synthesis, Antitumor Evaluation, Molecular Modeling and Quantitative Structure–Activity Relationship (QSAR) of Novel 2-[(4-Amino-6-N-substituted-1,3,5-triazin-2-yl)methylthio]-4-chloro-5-methyl-N-(1H-benzo[d]imidazol-2(3H)-ylidene)Benzenesulfonamides” (International Journal of Molecular Sciences, 2020).

Assays:
[1] = system: HCT-116 (colon cancer) cell line; assay: MTT cell viability assay, HCT-116; format: cell-based, human; details: Homo sapiens, HCT-116, 72 h, MTT, 72 h, 1-100 µM, mean ± SD
Protocol: (§1) Compounds 6–49 were evaluated in vitro for their effects on the viability of the three human cancer cell lines: HCT-116 (colon cancer), MCF-7 (breast cancer) and HeLa (cervical cancer) as well as the non-cancerous keratinocyte cell line (HaCaT). The concentration required for 50% inhibition of cell viability IC50 was calculated and compared with the reference drug cisplatin, the results are shown in Table 1.
(§2) Cell lines: colon cancer (HCT-116), breast cancer (MCF-7), cervical cancer (HeLa), the human keratinocyte cell line (HaCaT); NT—not tested; IC50 was measured at concentrations 1, 10, 25, 50, and 100 µM. IC50 values are expressed as the mean ± SD of at last three independent experiments.
(§3) All chemicals, if not stated otherwise, were obtained from Sigma–Aldrich (St. Louis, MO, USA). The HCT-116 cell lines was purchased from ATCC (ATCC-No: CCL-247), while the MCF-7, HeLa and HaCaT cell lines were purchased from Cell Lines Services (Eppelheim, Germany). Cells were cultured in Dulbecco’s modified Eagle’s medium (DMEM) supplemented with 10% fetal bovine serum, 2 mM glutamine, 100 units/mL penicillin, and 100 µg/mL streptomycin. Cultures were maintained in a humidified atmosphere with 5% carbon dioxide at 37 °C in an incubator (Heraceus, HeraCell).
(§4) Cell viability was examined using the MTT (3-(4,5-dimethylthiazol-2-yl)-2,5-diphenyltetrazolium bromide) assay. Cells were seeded in 96-well plates at a density of 5 × 10^3 cells/well and treated for 72 h with the tested compounds in the concentration range of 1–100 µM (1, 10, 25, 50 and 100 µM). Then, MTT (0.5 mg/mL) was added to the medium and cells were further incubated for 2 h at 37 °C. In the next stage, cells were lysed with DMSO and the absorbance of the formazan solution was measured at 550 nm with a plate reader (1420 multilabel counter, Victor, Jügesheim, Germany). The experiment was performed in triplicate. Values are expressed as the mean ± SD of at least three independent experiments. Cisplatin was used as a positive control.

[2] = system: HeLa (cervical cancer) cell line; assay: MTT cell viability assay, HeLa; format: cell-based, human; details: 72 h, MTT, 1-100 µM, mean ± SD
Protocol: as §1, §2, §3, §4

[3] = system: HaCaT (non-cancerous keratinocyte cell line); assay: MTT cell viability assay, HaCaT; format: cell-based; details: Homo sapiens, 72 h, 1-100 µM, mean ± SD, non-cancerous cells
Protocol: as §1, §2, §3, §4

[4] = system: MCF-7 (breast cancer) cell line; assay: MTT cell viability assay, MCF-7; format: cell-based, human; details: MTT, 72 h, 1-100 µM, mean ± SD
Protocol: as §1, §2, §3, §4

IC50 [1] [µM] | IC50 ([2]; Homo sapiens, HeLa) [µM] | IC50 ([4]; Homo sapiens, MCF7, 72 h) [µM] | IC50 [4] [µM] | IC50 [2] [µM] | Compound | IC50 [3] [µM]
34 ± 2 | 34 ± 1 | 32 ± 1 | – | – | Cc1cc(S(=O)(=O)N=c2[nH]c3ccc(Cl)cc3[nH]2)c(SCc2nc(N)nc(N3CCN(c4ccc(Cl)c(Cl)c4)CC3)n2)cc1Cl [Compound 48, 2-[{4-Amino-6-[4-(3,4-dichlorophenyl)piperazin-1-yl]-1,3,5-triazin-2-yl}methylthio]-4-chloro-N-(5-chloro-1H-benzo[d]imidazol-2(3H)-ylidene)-5-methylbenzenesulfonamide] | 40 ± 2
37 ± 2 | 39 ± 1 | 41 ± 1 | – | – | Cc1cc(S(=O)(=O)N=c2[nH]c3ccccc3[nH]2)c(SCc2nc(N)nc(Nc3ccccc3)n2)cc1Cl [Compound 11, 2-{[4-Amino-6-(phenylamino)-1,3,5-triazin-2-yl]methylthio}-N-(1H-benzo[d]imidazol-2(3H)-ylidene)-4-chloro-5-methylbenzenesulfonamide] | 58 ± 2
35 ± 2 | 28 ± 2 | > 100 | 74 ± 2 | – | Cc1cc(S(=O)(=O)N=c2[nH]c3ccc(F)cc3[nH]2)c(SCc2nc(N)nc(N3CCN(c4ccc(Cl)cc4)CC3)n2)cc1Cl [Compound 39, 2-[{4-Amino-6-[4-(4-chlorophenyl)piperazin-1-yl]-1,3,5-triazin-2-yl}metylthio]-4-chloro-N-(5-fluoro-1H-benzo[d]imidazol-2(3H)-ylidene)-5-methylbenzenesulfonamide] | 76 ± 2
33 ± 1 | 33 ± 1 | 32 ± 1 | – | – | Cc1cc(S(=O)(=O)N=c2[nH]c3ccccc3[nH]2)c(SCc2nc(N)nc(N(C)c3ccccc3)n2)cc1Cl [Compound 16, 2-[{4-Amino-6-[methyl(phenyl)amino]-1,3,5-triazin-2-yl}metylthio]-N-(1H-benzo[d]imidazol-2(3H)-ylidene)-4-chloro-5-methylbenzenesulfonamide] | 45 ± 2
37 ± 1 | 39 ± 1 | 40 ± 1 | – | – | Cc1cc(S(=O)(=O)N=c2[nH]c3ccc(F)cc3[nH]2)c(SCc2nc(N)nc(Nc3cccc(Cl)c3)n2)cc1Cl [Compound 35, 2-[{4-Amino-6-[(3-chlorophenyl)amino]-1,3,5-triazin-2-yl}methylthio]-4-chloro-N-(5-fluoro-1H-benzo[d]imidazol-2(3H)-ylidene)-5-methylbenzenesulfonamide] | 52 ± 2
17 ± 0.5 | 21 ± 0.4 | 20 ± 1 | – | – | Cc1cc(S(=O)(=O)N=c2[nH]c3ccccc3[nH]2)c(SCc2nc(N)nc(N3CCN(c4ccc(F)c(Cl)c4)CC3)n2)cc1Cl [Compound 26, 2-[{4-Amino-6-[4-(3-chloro-4-fluorophenyl)piperazin-1-yl]-1,3,5-triazin-2-yl}methylthio]-N-(1H-benzo[d]imidazol-2(3H)-ylidene)-4-chloro-5-methylbenzenesulfonamide] | 35 ± 1
32 ± 1 | 35 ± 1 | 24 ± 1 | – | – | Cc1cc(S(=O)(=O)N=c2[nH]c3ccccc3[nH]2)c(SCc2nc(N)nc(Nc3ccc(Cl)cc3)n2)cc1Cl [Compound 13, 2-[{4-Amino-6-[(4-chlorophenyl)amino]-1,3,5-triazin-2-yl}metylthio]-N-(1H-benzo[d]imidazol-2(3H)-ylidene)-4-chloro-5-methylbenzenesulfonamide] | 41 ± 2
17 ± 0.5 | 18 ± 1 | 24 ± 1 | – | – | Cc1cc(S(=O)(=O)N=c2[nH]c3ccccc3[nH]2)c(SCc2nc(N)nc(N3CCN(Cc4ccccc4)CC3)n2)cc1Cl [Compound 30, 2-{[4-Amino-6-(4-benzylpiperazin-1-yl)-1,3,5-triazin-2-yl]methylthio}-N-(1H-benzo[d]imidazol-2(3H)-ylidene)-4-chloro-5-methylbenzenesulfonamide] | 36 ± 2
35 ± 1 | > 100 | > 100 | 110 ± 3 | 74 ± 1 | COc1ccc(N2CCN(c3nc(N)nc(CSc4cc(Cl)c(C)cc4S(=O)(=O)N=c4[nH]c5ccccc5[nH]4)n3)CC2)cc1 [Compound 27, 2-[{4-Amino-6-[4-(4-methoxyphenyl)piperazin-1-yl]-1,3,5-triazin-2-yl}metylthio]-N-(1H-benzo[d]imidazol-2(3H)-ylidene)-4-chloro-5-methylbenzenesulfonamide] | 98 ± 2
54 ± 2 | 56 ± 2 | 41 ± 1 | – | – | COc1ccc(Nc2nc(N)nc(CSc3cc(Cl)c(C)cc3S(=O)(=O)N=c3[nH]c4ccccc4[nH]3)n2)cc1 [Compound 14, 2-[{4-Amino-6-[(4-methoxyphenyl)amino]-1,3,5-triazin-2-yl}metylthio]-N-(1H-benzo[d]imidazol-2(3H)-ylidene)-4-chloro-5-methylbenzenesulfonamide] | 65 ± 3
29 ± 1 | 30 ± 1 | 31 ± 1 | – | – | Cc1cc(S(=O)(=O)N=c2[nH]c3ccccc3[nH]2)c(SCc2nc(N)nc(N(C)c3ccc(Cl)cc3)n2)cc1Cl [Compound 17, 2-[{4-Amino-6-[(4-chlorophenyl)(methyl)amino]-1,3,5-triazin-2-yl}methylthio]-N-(1H-benzo[d]imidazol-2(3H)-ylidene)-4-chloro-5-methylbenzenesulfonamide] | 43 ± 2
30 ± 1 | 34 ± 1 | 35 ± 1 | – | – | COc1ccccc1N1CCN(c2nc(N)nc(CSc3cc(Cl)c(C)cc3S(=O)(=O)N=c3[nH]c4ccc(Cl)cc4[nH]3)n2)CC1 [Compound 49, 2-[{4-Amino-6-[4-(2-methoxyphenyl)piperazin-1-yl]-1,3,5-triazin-2-yl}methylthio]-4-chloro-N-(5-chloro-1H-benzo[d]imidazol-2(3H)-ylidene)-5-methylbenzenesulfonamide] | 96 ± 1
18 ± 0.5 | 29 ± 1 | 37 ± 2 | – | – | Cc1cc(S(=O)(=O)N=c2[nH]c3ccc(F)cc3[nH]2)c(SCc2nc(N)nc(N(C)c3ccc(Cl)cc3)n2)cc1Cl [Compound 36, 2-[{4-Amino-6-[(4-chlorophenyl)(methyl)amino]-1,3,5-triazin-2-yl}metylthio]-4-chloro-N-(5-fluoro-1H-benzo[d]imidazol-2(3H)-ylidene)-5-methylbenzenesulfonamide] | 49 ± 1
15 ± 1 | 17 ± 0.5 | 24 ± 1 | – | – | Cc1cc(S(=O)(=O)N=c2[nH]c3ccccc3[nH]2)c(SCc2nc(N)nc(N3CCN(c4ccccc4F)CC3)n2)cc1Cl [Compound 21, 2-[{4-Amino-6-[4-(2-fluorophenyl)piperazin-1-yl]-1,3,5-triazin-2-yl}metylthio]-N-(1H-benzo[d]imidazol-2(3H)-ylidene)-4-chloro-5-methylbenzenesulfonamide] | 32 ± 1
17 ± 1 | 27 ± 0.5 | 20 ± 0.6 | – | – | Cc1cc(S(=O)(=O)N=c2[nH]c3ccccc3[nH]2)c(SCc2nc(N)nc(N3CCN(c4cccc(Cl)c4)CC3)n2)cc1Cl [Compound 24, 2-[{4-Amino-6-[4-(3-chlorophenyl)piperazin-1-yl]-1,3,5-triazin-2-yl}methylthio]-N-(1H-benzo[d]imidazol-2(3H)-ylidene)-4-chloro-5-methylbenzenesulfonamide] | 42 ± 2
